Experimental data reported in PMC11491004, “CHF6523 data suggest that the phosphoinositide 3-kinase delta isoform is not a suitable target for the management of COPD” (Respiratory Research, 2024).

Assays:
[1] = system: sputum cell counts; test: Cell count in induced sputum; assay type: in vivo, human; details: p < 0.05
Protocol: All assessment timings were based on the morning dose. Pre-dose on Days 1 and 28 of each treatment period, blood samples were taken for pharmacokinetic analyses, followed by forced oscillation (including slow vital capacity manoeuvres for inspiratory capacity [IC] and vital capacity [VC]), spirometry (forced expiratory volume in 1 s [FEV1] and forced vital capacity [FVC]), and the COPD Assessment Test (CAT). Blood samples were also taken up to 12 h post-dose on Days 1 and 28 for pharmacokinetic analyses, with blood samples for biomarker assessment pre-dose on Day 1 and 2 h post-dose on Day 28, and spirometry pre-dose on Days 20 and 24. […]
Fold-change from baseline in cell counts, target biomarkers in sputum and blood, and PIP3 were log-transformed and analysed using an analysis of covariance (ANCOVA) model, with treatment, patient, and period as fixed effects, and baseline value as covariate. Changes from baseline in spirometry, forced oscillation and CAT endpoints were analysed using a similar ANCOVA model, but without log transformation. Rescue medication data were analysed using an analysis of variance model, including treatment, period and patient as fixed effects. […]
To induce sputum, patients with FEV1 ≥0.8 L inhaled nebulised hypertonic saline at increasing concentrations (3%, then 4% and finally 5%), with FEV1 monitored for safety after each concentration. […]

[2] = in vivo

C[C@@H](c1oc(=O)c2ccccc2c1-c1cccc(CN2CCN(C)CC2)c1)n1nc(-c2cncc(O)c2)c2c(N)ncnc21 [CHF6523]
CHF6523–placebo differences in sputum cell counts [1]: no statistically significant | Adverse events leading to study discontinuation [2]: 6 (14.3%) Patients (%) | Adverse events leading to study discontinuation: Cough [2]: 5 (11.9%) Patients (%) | Adverse events: Abnormal product taste [2]: 14 (33.3%) Patients (%) | Adverse events: COPD exacerbation [2]: 4 (9.5%) Patients (%) | Adverse events: Chest discomfort [2]: 9 (21.4%) Patients (%) | Adverse events: Dyspnoea [2]: 9 (21.4%) Patients (%) | Adverse events: Headache [2]: 5 (11.9%) Patients (%) | Adverse events: Increased sputum [2]: 5 (11.9%) Patients (%) | CHF6523–placebo differences in the other safety evaluations [2]: no clinically relevant | Serious adverse events [2]: 2 (4.8%) Patients (%) | Serious treatment-related adverse events [2]: 0 Patients (%) | Severe adverse events [2]: 11 (26.2%) Patients (%) | Severe adverse events: Cough [2]: 7 (16.7%) Patients (%) | Treatment-related adverse events [2]: 40 (95.2%) Patients (%) | Treatment-related adverse events: Chest discomfort [2]: 9 (21.4%) Patients (%) | Treatment-related adverse events: Cough [2]: 40 (95.2%) Patients (%) | Treatment-related adverse events: Dyspnoea [2]: 9 (21.4%) Patients (%) | Treatment-related adverse events: Headache [2]: 3 (7.1%) Patients (%) | Treatment-related adverse events: Increased sputum [2]: 5 (11.9%) Patients (%) | Treatment-related adverse events: Product taste abnormal [2]: 14 (33.3%) Patients (%)
